Results on two compounds are retold here after US20130260391A1, “Method Of Determining The Protease Cathepsin B In A Biological Sample” (priority 2010, published 2013).

This assay addresses T1, cathepsin B (Homo sapiens, UniProt P07858).
T1 construct: Conversion of procathepsin B in the sample into the active form of cathepsin B; from tissue; host or cells: serum sample
Description: enzyme assay of cathepsin B activity in deinhibited serum sample with substrate Z-Arg-Arg-AFC (fluorescence). Conditions: inhibitor added to the enzyme assay after withdrawing the protease inhibitor; compared with the signal before withdrawing the inhibitor. Format: biochemical. The method, then: 6) Measuring the activity of cathepsin B in the sample
To 110 μl of the serum samples, which have been treated as described, in 0.5 ml reaction vessels 110 μl of a solution of the substrate (70 μM Z-Arg-Arg-AFC) are added, the pH-value of which is set at pH=6 by phosphate buffer and which contains 5 mM EDTA and 10 mM DTE. After mixing the samples are incubated for 120 min at 37° C. Subsequently the reaction vessels are cooled down with ice, centrifuged for a short time so as to bring the water condensed at the cap of the reaction vessel back to the solution and then the fluorescence emission is recorded, either on a microtiter plate by means of a fluorescence reader or in a cuvette by means of a fluorimeter. The excitation wavelength is at about 400 nm, and a suitable detection wavelength is at about 505 nm.
Thus evidence is established that the value measured in the enzyme assay after withdrawing the inhibitor relates to cathepsin B which is set free.

In the case of `CCCNC(=O)[C@H]1O[C@@H]1C(=O)N[C@H](C(=O)N1CCC[C@H]1C(=O)O)[C@@H](C)CC` [CA-074], the “measurement signal of the enzyme assay after addition of the inhibitor” value is reported as “the same as the measuring signal, which is obtained, when the enzyme assay is carried out before withdrawing the inhibitor”.

With `CC(C)C[C@H](NC(=O)[C@H]1O[C@@H]1C(=O)O)C(=O)NCCCCN=C(N)N` [E 64], the “measurement signal of the enzyme assay after addition of the inhibitor” value was “the same as the measuring signal, which is obtained, when the enzyme assay is carried out before withdrawing the inhibitor”.
